# Test results published in ChEMBL document CHEMBL3507680, “University of Dundee, Gates Library screen for HepG2 cell viability”.
# Assay: Human HepG2 cell viability assay in 384 well format
# Type: toxicity, cell-based
# Design: dose 125 nL, time 70.5 hour; cytotoxicity at 70.5 h: concentration not given beside the values
# Settings: HepG2 cells, read-out: Inhibition
row,SMILES,cytotoxicity at 70.5 h [%]
1,O=c1c2ccccc2nc2n1C(CSc1ccc(Cl)cc1Cl)CN2 (stereo unspecified),29.6
2,CCN(CC)C(=O)Cn1ccc2cc(NC(=O)C3CC3)ccc21,7.86
3,Cn1cccc1C(=O)N1CC[C@H]2[C@@H]1CCC(=O)N2c1ccccc1,11.6
4,CC(=O)N1CCCC(c2nccnc2Nc2nc(C)cc(C)n2)C1 (stereo unspecified),13.3
5,Cc1cc(NC2CCc3ncnn3C2)n2ncnc2n1 (stereo unspecified),-106
6,c1cc(-c2nc(CN3CCn4c(nnc4C4CC4)C3)cs2)cs1,-25.2
7,Cc1ccc2nc(C)c(C)c(C(=O)N3CCC4(CCO4)CC3)c2c1,-5.61
8,CN(C)CC(=O)NC1CC(C)(C)Cc2nc(C(C)(C)C)ncc21 (stereo unspecified),46.7
9,COCC(NC(=O)c1cnc(-c2ccncc2)nc1)c1ccnn1C (stereo unspecified),-5.01
10,Cc1cnc(N2CCc3cc(C(=O)O)c(N(C)C)nc3CC2)nc1,-7.94
11,O=C(CCc1ccc2c(c1)OCO2)N1CCCCC1Cn1cccn1 (stereo unspecified),-8.55
12,Cc1nc(CC(=O)N2CCn3c(nnc3C(C)C)C2)cs1,-2.25
13,Cc1cc(C(=O)N2CCC(n3cc(CO)nn3)CC2)ccc1F,-5.39
14,Cc1nsc(NC2CCOC3(CCCC3)C2)n1 (stereo unspecified),-1.21
15,Cc1cc(NC(=O)Cc2ccccc2O)cnc1N1CCCCC1,-12.3
16,Cn1cnc2c1CCN(Cc1ccc(Cl)c3cccnc13)C2,15.6
17,Cc1nc(-c2c(-c3ccccc3)ncn2CCCN2CCOCC2)c[nH]1,-8.17
18,CCOCC1CN(Cc2cnn(C)c2)Cc2cnn(C)c21 (stereo unspecified),-9.88
19,COCCCNC(=O)c1ccn(-c2ccc3ccccn23)n1,-12.6
20,CCn1nc(C)cc1S(=O)(=O)N1CCC2(CCCN(C(C)C)C2=O)C1 (stereo unspecified),-1.6
21,CNc1ncc(CN(C)C(=O)c2ccc(C3CCCO3)s2)cn1 (stereo unspecified),-3.31
22,Cc1ccc(CNC(=O)N2CCCC(NS(C)(=O)=O)C2)cc1 (stereo unspecified),2.89
23,Cc1cc(-c2cccc(C(=O)O)c2)nc(C2CCN(C(C)C)CC2)n1,-3.8
24,CC(Cn1ccnc1)NC(=O)N1CCN(Cc2cccs2)CC1 (stereo unspecified),13.9

row,SMILES,cytotoxicity at 70.5 h [%]
1,Cc1ccnc(OCC(=O)N2CCCC2)n1,-0.226
2,CC1CCc2nn(CCNC(=O)Cc3cccs3)c(=O)cc2C1 (stereo unspecified),-2.17
3,CCOCC(O)CN1CCN(C(=O)c2ccccc2Cl)CC1 (stereo unspecified),-2.72
4,CO[C@H]1CCN(S(=O)(=O)c2cn(C)cn2)[C@H]1Cc1ccccc1,0.174
5,CS(=O)(=O)CCCNC1(c2cccc(F)c2)CC1,-7.6
6,CCC(C)NC(=O)c1ccc(CNC(=O)COC)cc1 (stereo unspecified),-9.97
7,NCc1ccc(Oc2cccc(Cl)c2Cl)cc1,14.7
8,CC(C)c1nc(CN(C)C2CCN(CC(F)(F)F)C2)no1 (stereo unspecified),1.98
9,CC(C)CCNC(=O)c1c(-n2cnnn2)sc2c1CCCC2,-0.216
10,CC(C)N1CCN(C(=O)c2ccccc2NCc2cccnc2)CC1,-5.19
11,COc1ccc(C2CC(=O)Nc3nc(N4CCOCC4)sc32)c(OC)c1 (stereo unspecified),-21.3
12,CN(C)c1cc(CNC(=O)Nc2cccnc2N2CCCC2)ccn1,-2.03
13,CC(C)(O)CSCCNCc1ccc(Cl)c2cccnc12,12.8
14,COc1c(C)cnc(CN2CCOC(Cn3cc(C)cn3)C2)c1C (stereo unspecified),0.484
15,O=C(c1cc(-c2cccs2)nc2ccccc12)N1CCN(CCO)CC1,0.548
16,C[C@@H](NC(=O)c1cccs1)c1onc(-c2cccnc2)c1C(=O)O,2.92
17,CC(C)(C)c1csc(CCNC(=O)[C@H](c2ccccc2)n2cnnn2)n1,-5.57
18,CCn1nnnc1-c1cccc(NCc2nc(C)ccc2O)c1,-6.25
19,Cc1nc(C2CCCN(C(=O)CCn3ccccc3=O)C2)no1 (stereo unspecified),-3.24
20,CNS(=O)(=O)c1cccc(CNc2ncccn2)c1,-1.46
21,Cc1occc(=O)c1OCc1noc(C(=O)NCC(C)C)n1,-16.8
22,Cc1noc(C)c1C(C)C(=O)N1CCCN(Cc2cscn2)CC1 (stereo unspecified),-9.23
23,CC(C)=CCN1C[C@H]2CC[C@@H]1CN(CCC(=O)NCc1ccco1)C2,30.2
24,CNC(=O)c1ccc(NC(=O)NC(C)CCc2cccn2C)c(C)c1 (stereo unspecified),-0.342

row,SMILES,cytotoxicity at 70.5 h [%]
1,O=S(=O)(C1CC1)N1CC[C@]2(C[C@@H](OCC3CCOCC3)CO2)C1,-9.4
2,Cc1ccc(-c2nc(CN3CCn4c(nnc4C4CC4)C3)cs2)o1,14.8
3,CC(O)CN1CCN(C(=O)c2ccnc(N(C)C)c2)CC1 (stereo unspecified),14.1
4,CC1c2ncc(CN3CCN(C)CC3)n2CCN1CC1CC1 (stereo unspecified),-11.9
5,COc1c(CNCc2cccc(Cn3ccnc3)c2)c(C)nn1C,-1.14
6,CC(C)CN1CCN(C(=O)Nc2cc(C(F)(F)F)c[nH]c2=O)CC1,-17.9
7,CNC(=O)c1cc(C)n(-c2ccccc2)n1,-2.98
8,O=C(NCc1ccccc1CN1CCCCC1)Nc1nncs1,-10.2
9,COCC(=O)N1CCC(c2cc(-c3ccc(C)cc3)n[nH]2)C1 (stereo unspecified),14.4
10,CCn1ncc2c1C(COC)N(C(=O)c1cscn1)CC2 (stereo unspecified),6.98
11,CN1CCN(C(=O)c2cn(Cc3ccccc3)c3ncccc23)CC1,-3.43
12,CN(C)c1cc(CNC(=O)c2ccc(F)cc2)ccn1,2.85
13,CCN(C(=O)C1Cc2cc(Cl)ccc2O1)C1CC1 (stereo unspecified),-2.35
14,CCC(=O)N1CCN(C(=O)c2ccc(OC)o2)[C@H]2CS(=O)(=O)C[C@H]21,-4.25
15,Cc1nc(C)c(C(=O)N2CCc3nc4sc(C)cc4c(=O)n3CC2)o1,-4.92
16,Cc1noc(C2CCN(C(=O)c3ccc(C(F)(F)F)nc3)CC2)n1,-5.24
17,CNC(=O)Cc1nc(CNc2ccc(SC)c(F)c2)cs1,-0.256
18,COCC1(CNc2cc(C(C)C)nc(N)n2)CC1,2.2
19,Cc1cnn(CC2CCCN2C(=O)c2c(C)noc2C(C)C)c1 (stereo unspecified),11.7
20,CCCC(=O)N1CCC(c2ncc3c(n2)CCNC3)CC1,-5.64
21,CCOc1ccccc1OCCN(C)Cc1ncnn1CC,-6.09
22,Cc1ccc(CNCc2cccc(NC(=O)CCN3CCOCC3)c2)s1,-5.6
23,O=S(=O)(NCCc1c[nH]c2ccc(F)cc12)C1CCOCC1,-16
24,Cc1cc2nc(C(C)C)cc(NCCc3cccn3C)n2n1,-8.08

row,SMILES,cytotoxicity at 70.5 h [%]
1,N#Cc1c(SCCN2CCCCC2)sc2c(O)cc(O)nc12,17.9
2,CCn1nc(C(C)C)cc1C(=O)NCCCOC,-4.05
3,COc1cccc(C(=O)NS(=O)(=O)c2cc(Cl)sc2Cl)c1OC(F)F,-7.95
4,Cc1ccsc1CCNC(=O)C1(Oc2cccnc2C)CCNCC1,-10.2
5,COc1ncccc1NC(=O)NCC(O)c1ccc(F)cc1F (stereo unspecified),-1.05
6,CC(=O)N1CCN(Cc2ccc(C)o2)CC2(CC(=O)N(C)C2)C1 (stereo unspecified),-4.13
7,Cc1cnn(CCNCc2ccc(OCc3noc(C)n3)cc2)c1,-6.14
8,Cc1nnc2n1CCN(C(=O)c1ccnc(N(C)C)c1)C2,6.98
9,Cc1c(Br)cccc1C(=O)NCC1CCCNC1 (stereo unspecified),2.2
10,COc1nc(C)c(C(=O)N2CCN(c3ncccc3C)CC2)s1,-4.24
11,CS(=O)(=O)N1CC[C@]2(O)CCN(c3ccnc(N)n3)C[C@@H]2C1,-0.327
12,Cc1noc(C)c1CN(C)Cn1c(=O)n(C)c2ccccc21,-6.45
13,CCS(=O)(=O)NC[C@]12COC[C@H]1CN(Cc1cccnc1OC)C2,-19.9
14,Cc1cc(C(=O)NCc2cc(C)oc2C)no1,-5.78
15,O=C(c1ccc[nH]1)N1CCn2cc(CN3CCCC3)nc2C1,-8.96
16,COc1cc(CNC(C)c2nnc3n2CCC3)cc(OC)c1 (stereo unspecified),-9.55
17,COCC(C)NC(=O)NCCc1cccc(OC)c1O (stereo unspecified),8.57
18,c1sc(C2CCCC2)nc1CN1CCn2c(nnc2C2CC2)C1,4.56
19,Cc1ccc(C(O)CNC(=O)c2cccnc2O)cc1 (stereo unspecified),-12.1
20,CCCS(=O)(=O)NC(C)c1cccc(-n2cccn2)c1 (stereo unspecified),-6.77
21,Cc1cc(C)n(CC2CCCN2C(=O)c2cnccn2)n1 (stereo unspecified),14.8
22,CN1CC=C(c2noc(CCC(=O)N3CCc4ccccc4C3)n2)CC1,-15
23,COCC1CC2(CCN(C(=O)c3ccc(F)c(Cl)c3)CC2)CO1 (stereo unspecified),13
24,CC(C)c1nccn1C(C)C(=O)N1CCN(c2ccccc2Cl)CC1 (stereo unspecified),-4.99

row,SMILES,cytotoxicity at 70.5 h [%]
1,CC(=O)N1CCC(NC2(Cc3cc(CN(C)C)on3)COC2)CC1,11.9
2,Cc1cc(C)c(S(N)(=O)=O)cc1C(=O)NCC1Cc2ccccc2O1 (stereo unspecified),-5.64
3,COc1cc(CNC(=O)COC2CCCCC2)ccc1O,-4.46
4,Cc1cc(CN2CCN(C(=O)NCc3ccoc3)CC2)no1,-1.05
5,CC(C)(C)CN1CCOC[C@H]1c1nc(-c2cccc(F)c2)c[nH]1,-6.97
6,COc1ccc(C(=O)N2CCN(C(=O)CCCc3cn[nH]c3)CC2)cc1,-5.64
7,Cc1cc(CCC(N)=O)cc(C2CCCN2Cc2ccccn2)n1 (stereo unspecified),-9.69
8,CN(C)C1CCCN(C(=O)NCCc2cc(F)ccc2F)C1 (stereo unspecified),23.5
9,NCc1ccnc(Oc2ccccc2)c1,-8.2
10,Cc1ccc(N2CC3(CCN(S(=O)(=O)C4CC4)C3)C2)nn1,-5.86
11,COCC1CN(Cc2c(C)noc2C)Cc2cn(C)nc21 (stereo unspecified),10.9
12,COCCOc1cccc(CNC(=O)CN2CCN(C)CC2C)c1 (stereo unspecified),10.3
13,COc1ccc(CNc2c(C)cnc3c2c(=O)n(C)c(=O)n3C)cc1,7.6
14,CN(C)c1ccc(CNC(=O)NCCc2cccs2)cn1,-12.3
15,O=C(NCc1ccc2c(c1)OCO2)Nc1cccnc1N1CCCC1,-2.2
16,COC(=O)CCN(CC1CCCO1)C(=O)Cc1ccc(OC)c(OC)c1 (stereo unspecified),-5.89
17,CCCc1n[nH]c(C2CN(C(=O)c3cccc4[nH]ncc34)CCO2)n1 (stereo unspecified),-3.81
18,O=C(N[C@]12CC1CN(C(=O)c1ccco1)C2)c1cccc(F)c1 (stereo partly specified),13.8
19,CN(C)C(=O)Cn1cc(C(=O)NCCc2ccc(C(F)(F)F)cc2)nn1,30.1
20,Cc1cccc2c1OCCC2NCc1c(C)nn(C)c1N(C)C (stereo unspecified),35
